# Measured values reported in patent US8628931B2, “mTOR pathway theranostic” (George Mason Intellectual Properties, Inc., priority 2005, dated 2014).
# How the values were obtained:
# Format in all cases: in vivo, mouse
# [1] = tested on: Rh30 alveolar rhabdomyosarcoma xenograft; assay: CCI-779 suppression of Rh30 rhabdomyosarcoma xenograft tumor growth; conditions: Rh30 orthotopic xenograft, SCID beige mice, 20 mg/kg IP every 3 days for 30 days, calipers
# Description: (§1) (FIG. 6A) Time dependent CCI-779 inhibition of phosphorylation of mTOR pathway downstream substrates within tumor tissue in a xenograft treatment model. […] (FIG. 6B) CCI-779 inhibited tumor growth in Rh30 and RD mouse xenograft models. 2×10^6 cells in 0.2 mL total volume per mouse, from either Rh30 alveolar or RD embryonal cell lines, were injected orthotopically into the left hind leg gastrocnemius muscle of a SCID beige murine model. After 1 week, mice were assigned to control (n=8) or CCI-779 treatment groups (n=8). Tumor volume, as measured with calipers, was less in the CCI-779 treatment group as compared to the vehicle alone for both the Rh30 and RD xenografts --▴-- RD control, -▪- Rh30 plus CCI-779, -- ♦-- Rh30 control --X- RD plus CCI-779, (RD p=0.00008; Rh30 p=0.0002, Student's t-test). (FIG. 6C) CCI-779 was administered at 20 mg/kg/IP every 3 days for 30 days. Protein extracts from Rh30 and RD mouse xenograft tumors or uninvolved muscle were treated with CCI-779 or vehicle for 30 days and analyzed by Western blotting for S6 and 4EBP1 phosphorylation.
# (§2) 5. In vivo xenograft tumor model. […] Tumor growth was measured every 3 days with calipers, and tumor volume was calculated by the formula V (mm^3)=a×b^2, where a is the longest tumor axis, and b is the shortest tumor axis. […]
# [2] = tested on: RD embryonal rhabdomyosarcoma xenograft; assay: CCI-779 suppression of RD rhabdomyosarcoma xenograft tumor growth; conditions: RD orthotopic xenograft, SCID beige mice, 20 mg/kg IP every 3 days for 30 days, calipers
# Description: as §1, §2
# [3] = tested on: mTOR pathway substrates pS6 Ser235/236 and 4EBP1 Thr70; assay: Time dependent inhibition of phosphorylation of mTOR pathway downstream substrates in xenograft treatment model (FIG. 6A); conditions: non-involved muscle and tumor tissue, compared to actin
# Description: as §1, §2
# [4] = tested on: mTOR downstream targets 4EBP1 and S6; assay: Western blotting for S6 and 4EBP1 phosphorylation, Rh30 xenograft tumors or uninvolved muscle
# Description: as §1, §2
# [5] = tested on: mTOR downstream targets 4EBP1 and S6; assay: Western blotting for S6 and 4EBP1 phosphorylation, RD xenograft tumors or uninvolved muscle
# Description: as §1, §2
smiles,measurement,setting,value
"CO[C@H]1C[C@@H]2CC[C@@H](C)[C@@](O)(O2)C(=O)C(=O)N2CCCC[C@H]2C(=O)O[C@H]([C@H](C)C[C@@H]2CC[C@@H](OC(=O)C(C)(CO)CO)[C@H](OC)C2)CC(=O)[C@H](C)/C=C(\C)[C@@H](O)[C@@H](OC)C(=O)[C@H](C)C[C@H](C)/C=C/C=C/C=C/1C [CCI-779, 40-[3-hydroxy(hydroxymethyl)methylpropanoate]-rapamycin]",Tumor volume / tumor growth compared to vehicle alone,[1],less and profoundly reduced the growth
same,Tumor volume / tumor growth compared to vehicle alone,[2],less and profoundly reduced the growth
same,Phosphorylation of 4EBP1 Thr70,[3],inhibited phosphorylation
same,Phosphorylation of pS6 Ser235/236,[3],inhibited phosphorylation
same,Phosphorylation of mTOR downstream targets (4EBP1 and S6),[4]; Rh30 alveolar xenograft derived tumors,inhibited the expected phosphorylation
same,Phosphorylation of 4EBP1,"[4]; Rh30 muscle and tumor cells, 20 mg/kg IP every 3 days for 30 days, Western blot",suppresses phosphorylation
same,Phosphorylation of mTOR downstream targets (4EBP1 and S6),[5]; RD embryonal xenograft derived tumors,inhibited the expected phosphorylation
same,Phosphorylation of 4EBP1,"[5]; RD muscle and tumor cells, 20 mg/kg IP every 3 days for 30 days, Western blot",suppresses phosphorylation
